In patent publication US5616327A (SRI International, priority 1994, dated 1997):
Where no end group is shown, it is not given here.

Molecular target: RNA polymerase-RNA complex ("cores" with transcriptase activity) (Influenza A virus, UniProt P03428+P03431+P03433)
Experiment: biochemical
Set-up: species or system Influenza virus A/PR/8/34
Settings: for inhibition at 0.05 µM / inhibition at 0.5 µM / inhibition at 5 µM / inhibition at 50 µM: read-out: % Inhibition (inhibition of polymerase by peptides)

Compound	inhibition at 0.05 µM [%]	inhibition at 0.5 µM [%]	inhibition at 5 µM [%]	inhibition at 50 µM [%]	50% inhibition (concentration, in words)	inhibition at 1 µM (1 μM, read-out: % Inhibition (inhibition of polymerase by peptide 6)) [%]	inhibition at 10 µM (10 μM, read-out: % Inhibition (inhibition of polymerase by peptide 6)) [%]	inhibition at 100 µM (100 μM, read-out: % Inhibition (inhibition of polymerase by peptide 6)) [%]	inhibition at 0.001 µM (.001 μM, read-out: % Inhibition (inhibition of polymerase by peptide 6)) [%]	inhibition at 0.01 µM (.010 μM, read-out: % Inhibition (inhibition of polymerase by peptide 6)) [%]	inhibition at 0.1 µM (.100 μM, read-out: % Inhibition (inhibition of polymerase by peptide 6)) [%]
CSCC[C@H](NC(=O)[C@H](CC(N)=O)NC(=O)[C@H](CC(N)=O)NC(=O)[C@@H]1CCCN1C(=O)[C@H](CC(=O)O)NC(=O)CNC(=O)[C@H](CC(N)=O)NC(=O)CNC(=O)[C@H](CC(N)=O)NC(=O)[C@H](CC(C)C)NC(=O)[C@H](C)N)C(=O)N[C@@H](CC(=O)O)C(=O)N[C@@H](CCCCN)C(=O)N[C@@H](C)C(=O)N[C@H](C(=O)N[C@@H](CCCCN)C(=O)N[C@@H](CC(C)C)C(=O)N[C@@H](Cc1ccc(O)cc1)C(=O)O)C(C)C [Peptide 2]	-37	-10	-20	-13							
CC[C@H](C)[C@H](NC(=O)[C@H](CCC(N)=O)NC(=O)[C@@H](N)CCC(=O)O)C(=O)N[C@@H](C)C(=O)N[C@@H](CC(=O)O)C(=O)N[C@@H](CO)C(=O)N[C@@H](CCC(N)=O)C(=O)N[C@@H](Cc1c[nH]cn1)C(=O)N[C@@H](CCCNC(=N)N)C(=O)N[C@@H](CO)C(=O)N[C@@H](Cc1c[nH]cn1)C(=O)N[C@@H](CCCNC(=N)N)C(=O)N[C@@H](CCC(N)=O)C(=O)N[C@@H](CCSC)C(=O)N[C@H](C(=O)O)C(C)C [Peptide 4]	38	22	23	32							
CC(C)C[C@H](NC(=O)CNC(=O)[C@H](C)NC(=O)[C@H](CO)NC(=O)[C@H](CO)NC(=O)[C@H](CO)NC(=O)[C@@H]1CCCN1C(=O)[C@H](Cc1c[nH]cn1)NC(=O)[C@@H](NC(=O)CN)[C@@H](C)O)C(=O)N[C@@H](CCCCN)C(=O)N[C@@H](CC(N)=O)C(=O)N[C@@H](CC(=O)O)C(=O)N[C@@H](CC(C)C)C(=O)N[C@@H](CC(C)C)C(=O)N[C@@H](CCC(=O)O)C(=O)N[C@@H](CC(N)=O)C(=O)O [Peptide 5]	16	14	1	-30							
CC[C@H](C)[C@H](NC(=O)[C@H](CCC(N)=O)NC(=O)[C@H](CCC(=O)O)NC(=O)[C@H](CS)NC(=O)[C@@H](NC(=O)[C@H](C)NC(=O)[C@@H](N)CS)[C@@H](C)O)C(=O)N[C@@H](C)C(=O)N[C@@H](CC(=O)O)C(=O)N[C@@H](CO)C(=O)N[C@@H](CCC(N)=O)C(=O)N[C@@H](Cc1c[nH]cn1)C(=O)N[C@@H](CCCNC(=N)N)C(=O)N[C@@H](CO)C(=O)N[C@@H](Cc1c[nH]cn1)C(=O)N[C@@H](CCCNC(=N)N)C(=O)N[C@@H](CCC(N)=O)C(=O)N[C@@H](CCSC)C(=O)N[C@H](C(=O)O)C(C)C [Peptide 6]					picomolar range	> 100	98	81	77	82	99
KREITFHGAKEISLS [Peptide 3]	9	8	-9	-30							
LTVPSERGLQRRR [Peptide 1]	3	2	9	35							
